How the values were obtained:
[1] = tested on: orexin neurons; assay: Patch-clamp recordings in acute hypothalamic slices (DREADD check); format: cell-based; details: hypothalamic slices of Orexin-Cre mice transduced with pAAV-hSyn-DIO-hM4D(Gi)-mCherry; CNO 2µM in perfusate
Protocol: Viral constructs. For chemogenetic experiments using DREADD, a viral construct (pAAV-hSyn-DIO-hM4D(Gi)-mCherry (AAV5; Addgene # 44362); 8.6 x 1012 viral infective units/ml) was locally injected bilaterally to inactivate orexin-cre neurons in Orexin-Cre (littermates) and transgenic mice (Firoc). As control virus, pAAV-hSyn-DIO-mCherry (AAV5; Addgene # 50459) was used. Both viral constructions were obtained from Addgene. Clozapine N-Oxide (CNO, 2mg/kg dissolved in saline 0.9%) was administered ip and 40 min later behavior was assessed, CNO efficacy in orexin neurons was confirmed in acute slices obtained from injected mice. Slices for electrophysiological recordings were prepared from 2-months old Orexin-Cre mice, 4 weeks after injection of the DREADD-mCherry virus into the lateral hypothalamus. […] Recordings were obtained at 30-32 °C from orexin+ neurons identified using fluorescence microscopy (mCherry+) in oxygenated artificial cerebrospinal fluid containing the following: 126 mM NaCl, 26 mM NaHCO3, 2.5 mM KCI, 1.25 mM NaH2PO4, 2 mM MgSO4, 2 mM CaCl2 and 10 mM glucose (pH 7.4). […] Data were analyzed using pClamp (Axon Instruments).

[2] = tested on: fear-conditioned mice; assay: Cued-fear conditioning (freezing behavior, context recall); format: in vivo
Protocol: Cued-fear conditioning. Experiments were performed at the same time of the day during the light phase with 3-4 months-old male and female mice (n=14-19 mice/genotype, balanced sex). The training and test sessions were video recorded. Mice were placed in a shuttle box chamber (AccuScan Instruments) for 120 sec before exposing them to a neutral conditioned stimulus (CS+) -a tone of 80 dB for 30s, presented together with an aversive unconditioned stimulus (US) -an electrical footshock of 0.3 mA/2 sec, except in the case of the PTSD-eliciting protocol, where 2.5 mA shocks were used. Training consisted of 5 consecutive trials with 90 sec intertrials (CS-). Animals remained in the chamber for 5 min more before returning them to their home cages. Twenty-four hours later, fear conditioning was tested placing the animals in a different context using the same protocol but without the unconditioned stimulus (US). […] Freezing behavior was defined by the absence of movement except of breathing and heart beating. Context-dependent extinction was tested 1 and 5 weeks later (delayed extinction). Mice were placed in the same context for 5 min to measure their freezing behavior. The latter unveils PTSD-like behaviour when it is abnormally retained.
Drug administration. Human recombinant IGF-I (Pre-Protech, USA) or vehicle (saline) were administered intracerebroventricularly (icv, 50 µg/kg/day) using Alzet osmotic minipumps for 7 days (Model 1007D), and the brain infusion kit 3 (Alzet, USA) with the following stereotaxic coordinates: AP= -0.5; ML= 1.1; DV= -2.5. Alzet pumps were implanted subcutaneously between the scapulae. In other experiments IGF-I was given intraperitoneally (ip, 1 µg/kg) to wild type mice submitted to the 2.5 mA fear-learning protocol 6 hours after fear conditioning. For hdM4Di (DREADD) experiments, clozapine-N-oxide (CNO, Tocris) was administered at 2mg/kg dissolved in saline 0.9%, and injected intraperitoneally 40 min before test sessions, and 24h and 1week after fear conditioning. 6-[4-(2-Piperidin-1-yl-ethoxy)-phenyl)]-3-pyridin-4-yl-pyrrazolo [1,5-a]-pyrimidine dihydrochloride (Compound C dihydrochloride, AMPK inhibitor; Cat. # CD0339, Chemdea NJ, USA) was administered intraperitoneally (ip, 10 mg/kg) 6 hours after fear conditioning to PTSD-like wild type mice.

[3] = tested on: orexin neurons; assay: c-fos immunostaining in orexin neurons after fear conditioning; format: in vivo; details: Firoc DREADD mice treated with CNO at week 1
Protocol: Immunocytochemistry. Mice were perfused transcardially under deep anesthesia (sodium pentobarbital, 50 mg/kg, i.p.) with 100 ml of saline buffer 0.9% followed by 100 ml of 4% paraformaldehyde (PFA) in 0.1N, pH 7.4 phosphate buffer (PB), 90 min after the cued-fear conditioning test, the recall context, or under basal conditions. This time point was selected as optimal to see c-Fos staining. For experiments with systemic administration of IGF-I, animals were sacrificed 2 hours after injection. Brains were removed, post-fixed overnight at 4°C in the same fixative, and cut at 50 µm thick sections on a vibratome (Leica VT 1000S). Sections were kept at 4°C, immersed in 0.1N PB with 0.02% sodium azide, until processing. Serial coronal free-floating sections were rinsed in 0.1N PB for 10 min, and a blocking solution containing 10% normal donkey serum, and 0.4% Triton X-100 in 0.1N PB (PB-T) was added and maintained at room temperature for 2 h. Thereafter, sections were incubated overnight at 4°C in the same solution with the corresponding primary antibodies (see Antibody Table). […] Images were taken with confocal microscopy (SP5, Leica Microsystems, Germany) and analyzed with Imaris software (Bitplane).
Image analysis. […] Last, spots were created for Vgat and Vglut2 with an estimated XY size of 0.5 µm, and the number of Vgat and Vglut2 spots in orexin+ cells was counted.

Structure (SMILES)	inhibition of orexin neurons (action potential frequency, input resistance) [1]	freezing behavior in the fifth week after fear learning ([2]; Firoc DREADD mice treated with CNO 1 week after fear learning)	context-dependent fear responses (context recall) 1 week later ([2]; Firoc mice injected with hM4Di virus, after CNO administration)	fear responses after fear conditioning ([2]; Firoc mice with hM4Di DREADD virus in lateral hypothalamus, CNO 2mg/kg ip 40 min before testing)	increased freezing after 2.5 mA shock protocol ([2]; orexin-Cre mice injected with hM4Di virus, CNO administration)	c-fos expression in orexin neurons 5 weeks after fear conditioning [3]	fear behavior after the PTSD protocol ([2]; wild type mice, 2.5 mA shocks, Compound C ip, 10 mg/kg, 6 hours after fear conditioning)
C[N+]1([O-])CCN(C2=Nc3cc(Cl)ccc3Nc3ccccc32)CC1 [CNO, clozapine-N-oxide]	inhibition of orexin neurons was confirmed	normal freezing behavior	normalized fear responses	normalized their fear responses	ameliorated	normal	–
c1cc(-c2cnn3cc(-c4ccc(OCCN5CCCCC5)cc4)cnc23)ccn1 [Compound C]	–	–	–	–	–	–	normalized fear behavior

From patent EP4085972A1, “AMP-ACTIVATED PROTEIN KINASE INHIBITORS FOR USE IN THE TREATMENT OF PTSD IN A SUBJECT” (Consejo Superior de Investigaciones Científicas (CSIC), priority 2021, dated 2022)
